From US10953037B2, “Chondroitin sulfate derivative and agent for treating bladder diseases” (priority 2015, dated 2021)
Like-named read-outs stand apart in the source and are kept apart here.

How the values were obtained:
[1] = test system: hydrochloric acid-induced micturition model rats; conditions: […] (w/v %), 0.2 mL single intravesical administration two days after HCl, cystometry seven days after HCl, vs. control (saline); for Intercontraction interval: FIG. 2
Protocol: Chondroitin sulfate derivatives prepared in compliance with the methods of Examples 3, 4 and 5 were dissolved in phosphate-buffered saline to prepare the test substances indicated below.
(§1) Two days after continuous instillation of hydrochloric acid, 0.2 mL of each test substance were administered transurethrally using a catheter (PE50) and retained in the bladder for 30 minutes under anesthesia.
Intercontraction interval and single voided volume were measured after changes in intravesical pressure had stabilized.

[2] = test system: hydrochloric acid-induced micturition model rats; experiment: Test Example B1: urinary function, rat hydrochloric acid-induced micturition model (steroid comparison); conditions: […] (w/v %), 0.2 mL single intravesical administration two days after HCl, cystometry seven days after HCl, vs. control (saline); for Intercontraction interval: FIG. 1
[3] = test system: hydrochloric acid-induced micturition model rats; experiment: Test Example B3: urinary function, rat hydrochloric acid-induced micturition model (comparison of conjugates and mixture); type: in vivo; conditions: 3% (w/v %) conjugate or mixture of 3% CS+[…] BTM, 0.2 mL single intravesical administration, cystometry seven days after HCl, vs. control
Protocol: A chondroitin sulfate derivative prepared in compliance with the method of Example 2 was dissolved in phosphate-buffered saline to prepare the test substances indicated below.
as §1

CS introduced with 21-Isoleucyl-Triamcinolone Acetonide [CS-Ile-TA]
Single voided volume [1]: significant increase in single voided volume
Intercontraction interval [1]: significantly increased intercontraction interval

CS introduced with 21-β-Alanyl-Prednisolone [CS-βAla-PRED]
Single voided volume [2]: significant increase in single voided volume
Intercontraction interval [2]: significantly increased intercontraction interval

CS introduced with 21-β-Alanyl-Triamcinolone Acetonide [CS-βAla-TA]
Single voided volume [1]: significant increase in single voided volume
Intercontraction interval [1]: significantly increased intercontraction interval
Single voided volume [2]: significant increase in single voided volume
Intercontraction interval [2]: significantly increased intercontraction interval

CS introduced with 21-Glycyl-Triamcinolone Acetonide [CS-Gly-TA]
Single voided volume [1]: significant increase in single voided volume
Intercontraction interval [1]: significantly increased intercontraction interval

CS introduced with 21-β-Alanyl-Betamethasone [CS-βAla-BTM]
Single voided volume [3]: significant increase in single voided volume
Intercontraction interval ([3]; FIG. 4): significantly increased intercontraction interval
Single voided volume [2]: significant increase in single voided volume
Intercontraction interval [2]: significantly increased intercontraction interval
